Data on six molecules can be found in ChEMBL document CHEMBL3351855, “Synthesis and biological evaluation of (-)-6-O-desmethylcryptopleurine and analogs” (Bioorg Med Chem Lett, 2015).

Assay type in all cases: functional, cell-based
Experiment [1] in a line: Antiproliferative activity against human NAMALWA cells after 72 hrs by ATPlite assay. As to conditions: NAMALVA. For orientation: Cellular ATP, detected with luciferase, serves as a proxy for viable cell number.
The test system of experiment [2] is A549. The experiment is described as follows: Antiproliferative activity against human A549 cells after 72 hrs by ATPlite assay. As to conditions: A549, 72 h.
Experiment [3] has as its system A-375. Description: Antiproliferative activity against human A375 cells after 72 hrs by ATPlite assay. Particulars: A-375, 72 h.
A short description of experiment [4]: Antiproliferative activity against human HCT116 cells after 72 hrs by ATPlite assay. As to conditions: HCT-116, 72 h.

For orientation: IC50 means the midpoint of a concentration-inhibition curve. Higher therefore signals weaker potency. As for `COc1cc2c3c(c4ccc(O)cc4c2cc1OC)CN1CCCC[C@@H]1C3`, the IC50 in experiment [1] amounted to 4.1 nM; in experiment [2], 2.5 nM; in experiment [3], 1.6 nM; in experiment [4], 1.4 nM.

As for `COc1cc2c3c(c4ccc(O)cc4c2cc1OC)CN1CCCC[C@@H]1C3=O`, the IC50 was found to be 60 nM in experiment [1], 65 nM in experiment [2], 56 nM in experiment [3] and 21 nM in experiment [4].

`COc1cc2c3c(c4ccc(O)cc4c2cc1OC)CN1CCCC[C@@H]1[C@@H]3O`: the IC50 was 1.1 nM in experiment [1], 1.4 nM in experiment [2], 0.3 nM in experiment [3] and 0.3 nM in experiment [4].

On to `COc1cc2c3c(c4ccc(O)cc4c2cc1OC)CN1CCC[C@@H]1C3`, for which the IC50 in experiment [2] stood at 1 nM.

`COc1ccc2c3c(c4cc(OC)c(OC)cc4c2c1)C[C@H]1CCCN1C3` [(-)-ANTOFINE]: the IC50 in experiment [2] was determined as 10 nM.

Take `COc1ccc2c3c(c4cc(OC)c(OC)cc4c2c1)C[C@H]1CCCCN1C3` [CRYPTOPLEURINE]: the IC50 in experiment [1] was 2.6 nM; in experiment [3], 1.2 nM; in experiment [4] it was 0.7 nM.
